Where a name gives a salt, the structure may show the parent alone. Read-outs that look alike come from different tables or passages of the source.
Tested on: pressor effects of angiotensin I
Test: oral effectiveness: blood pressure response to angiotensin I in anesthetized rats
Assay type: in vivo, rat
Details: for response vs control in vivo at 10 µmol/kg: Rattus norvegicus, oral 10 μmol/kg, Ex. 246, read-out: Blood Pressure Response to 400 ng/kg of Angiotensin I
Procedure: Rats (210-290 g body weight) were fasted overnight and then anesthetized with intraperitoneal pentobarbital, 50-60 mg/kg. Tracheostomy was performed and the animals were ventilated mechanically. A cannula was inserted into a femoral vein for injection of angiotensin I or II, and a second cannula was inserted into a common carotid artery for direct measurement of arterial blood pressure. Heparin, 1,000 units, was injected via the femoral vein to prevent coagulation. Blood pressure was measured with a pressure transducer connected to a polygraph. The rats were injected with 80 ng of angiotensin I or angiotensin II in 20 μl of 0.9 g % NaCl; an amount of antiotensin I or II sufficient to raise mean arterial blood pressure by 27-40 mm Hg. After the responsiveness of a given rat to angiotensins I and II was established, compound (I), at 2 or 5 mg/kg (drug dissolved in 0.5 ml of H2 O plus 10 μl of 1N NaHCO3), was given via a stomach tube. At timed intervals, the effects of 80 ng of angiotensin I or angiotensin II on mean arterial blood pressure were tested.
Rats were prepared as described in Example 222. Compound (II) [N-benzoyl-L-phenylalanylthiopropanoyl)-L-proline] was given orally, via a stomach tube, at a dose of 12 mg/kg or 20 mg/kg. Compound (II) was dissolved in 0.5 ml of H2 O plus 10 μl of 1N NaHCO3. In all other respects, the experimental preparations were exactly as described in Example 222.
Rats (210-290 g body weight) were fasted overnight and then anesthetized with intraperitoneal pentobarbital, 50-60 mg/kg. Tracheostomy was performed and the animals were ventilated mechanically. A cannula was inserted into a femoral vein for injection of angiotensin I or II, and a second cannula was inserted into a common carotid artery for direct measurement of arterial blood pressure. Heparin, 1,000 units, was injected via the femoral vein to prevent coagulation. Blood pressure was measured with a pressure transducer connected to a polygraph. The rats were injected with 160 ng of angiotensin I or 80 ng of angiotensin II in 20 μl of 0.9 g % NaCl; an amount of angiotensin I or II sufficient to raise mean arterial blood pressure by 27-40 mm Hg. After the responsiveness of a given rat to angiotensins I and II was established, compound (B) at 10 mg (drug dissolved in 0.5 ml of H2 O plus 10 μl of 1N NaHCO3), was given via a stomach tube. At timed intervals, the effects of 160 ng of angiotensin I or 80 ng of angiotensin II on mean arterial blood pressure were tested. Results are shown below:
Rats (210-290 g body weight) were fasted overnight and then anesthetized with intraperitoneal pentobarbital, 50-60 mg/kg. Tracheostomy was performed and the animals were ventilated mechanically. A cannula was inserted into a femoral vein for injection of angiotensin I, and a second cannula was inserted into a common carotid artery for direct measurement of arterial blood pressure. Heparin, 1,000 units, was injected via the femoral vein to prevent coagulation. Blood pressure was measured with a pressure transducer connected to a polygraph. The rats were injected with 400 ng/kg of angiotensin I in 20 μl of 0.9 g % NaCl; an amount of angiotensin I sufficient to raise mean arterial blood pressure by 39 mm Hg. After the responsiveness of a given rat to angiotensin I was established, the named compound at 17 μmol/kg (drug dissolved in 0.15 ml of H2 O plus 10 μl of 1N NaHCO3), was given via a stomach tube. At timed intervals, the effects of 400 ng/kg of angiotensin I on mean arterial blood pressure were tested. Results are shown below:
Rats (190-290 g body weight) were fasted overnight and then anesthetized with intraperitoneal pentobarbital, 50-60 mg/kg. Tracheostomy was performed and the animals were ventilated mechanically. A cannula was inserted into a femoral vein for injection of angtiotensin I, and a second cannula was inserted into a common carotid artery for direct measurement of arterial blood pressure. […]

CC(=O)N[C@@H](Cc1ccccc1)C(=O)SC[C@@H](C)C(=O)N1CCC[C@H]1C(=O)O [N-alpha-[3-(N-alpha-acetyl-L-phenylalanylthio)-2-D-methylpropanoyl]-L-proline]
Blood Pressure Response to 400 ng/kg of Angiotensin I (oral 13.6 μmole/kg, 3 min, Ex. 235): 40 % of Control | Blood Pressure Response to 400 ng/kg of Angiotensin I (oral 13.6 μmole/kg, 7 min, Ex. 235): 40 % of Control | Blood Pressure Response to 400 ng/kg of Angiotensin I (oral 13.6 μmole/kg, 13 min, Ex. 235): 28 % of Control | Blood Pressure Response to 400 ng/kg of Angiotensin I (oral 13.6 μmole/kg, 18 min, Ex. 235): 24 % of Control | Blood Pressure Response to 400 ng/kg of Angiotensin I (oral 13.6 μmole/kg, 23 min, Ex. 235): 20 % of Control | Blood Pressure Response to 400 ng/kg of Angiotensin I (oral 13.6 μmole/kg, 31 min, Ex. 235): 18 % of Control | Blood Pressure Response to 400 ng/kg of Angiotensin I (oral 13.6 μmole/kg, 34 min, Ex. 235): 20 % of Control | Blood Pressure Response to 400 ng/kg of Angiotensin I (oral 13.6 μmole/kg, 42 min, Ex. 235): 20 % of Control | Blood Pressure Response to 400 ng/kg of Angiotensin I (oral 13.6 μmole/kg, 48 min, Ex. 235): 16 % of Control | Blood Pressure Response to 400 ng/kg of Angiotensin I (oral 13.6 μmole/kg, 58 min, Ex. 235): 16 % of Control | Blood Pressure Response to 400 ng/kg of Angiotensin I (oral 13.6 μmole/kg, 67 min, Ex. 235): 20 % of Control | Blood Pressure Response to 400 ng/kg of Angiotensin I (oral 13.6 μmole/kg, 80 min, Ex. 235): 20 % of Control | Blood Pressure Response to 400 ng/kg of Angiotensin I (oral 13.6 μmole/kg, 90 min, Ex. 235): 18 % of Control | Blood Pressure Response to 400 ng/kg of Angiotensin I (oral 13.6 μmole/kg, 100 min, Ex. 235): 16 % of Control | Blood Pressure Response to 400 ng/kg of Angiotensin I (oral 13.6 μmole/kg, 112 min, Ex. 235): 20 % of Control | Blood Pressure Response to 400 ng/kg of Angiotensin I (oral 13.6 μmole/kg, 125 min, Ex. 235): 20 % of Control | Blood Pressure Response to 400 ng/kg of Angiotensin I (oral 13.6 μmole/kg, 137 min, Ex. 235): 30 % of Control | Blood Pressure Response to 400 ng/kg of Angiotensin I (oral 13.6 μmole/kg, 167 min, Ex. 235): 50 % of Control

C[C@H](CSC(=O)[C@H](Cc1ccccc1)NC(=O)C1CCCC1)C(=O)N1CCC[C@H]1C(=O)O [N-alpha-[3-(N-alpha-cyclopentylcarbonyl-L-phenylalanylthio)-2-D-methylpropanoyl]-L-proline]
Blood Pressure Response to 400 ng/kg of Angiotensin I (oral 23 μmole/kg, 2 min, Ex. 231): 71 % of Control | Blood Pressure Response to 400 ng/kg of Angiotensin I (oral 23 μmole/kg, 6 min, Ex. 231): 63 % of Control | Blood Pressure Response to 400 ng/kg of Angiotensin I (oral 23 μmole/kg, 16 min, Ex. 231): 49 % of Control | Blood Pressure Response to 400 ng/kg of Angiotensin I (oral 23 μmole/kg, 23 min, Ex. 231): 43 % of Control | Blood Pressure Response to 400 ng/kg of Angiotensin I (oral 23 μmole/kg, 37 min, Ex. 231): 43 % of Control | Blood Pressure Response to 400 ng/kg of Angiotensin I (oral 23 μmole/kg, 48 min, Ex. 231): 40 % of Control | Blood Pressure Response to 400 ng/kg of Angiotensin I (oral 23 μmole/kg, 64 min, Ex. 231): 26 % of Control | Blood Pressure Response to 400 ng/kg of Angiotensin I (oral 23 μmole/kg, 71 min, Ex. 231): 26 % of Control | Blood Pressure Response to 400 ng/kg of Angiotensin I (oral 23 μmole/kg, 84 min, Ex. 231): 37 % of Control | Blood Pressure Response to 400 ng/kg of Angiotensin I (oral 23 μmole/kg, 96 min, Ex. 231): 37 % of Control | Blood Pressure Response to 400 ng/kg of Angiotensin I (oral 23 μmole/kg, 109 min, Ex. 231): 40 % of Control | Blood Pressure Response to 400 ng/kg of Angiotensin I (oral 23 μmole/kg, 124 min, Ex. 231): 54 % of Control | Blood Pressure Response to 400 ng/kg of Angiotensin I (oral 23 μmole/kg, 140 min, Ex. 231): 51 % of Control | Blood Pressure Response to 400 ng/kg of Angiotensin I (oral 23 μmole/kg, 157 min, Ex. 231): 63 % of Control | Blood Pressure Response to 400 ng/kg of Angiotensin I (oral 23 μmole/kg, 171 min, Ex. 231): 77 % of Control

C[C@H](CSC(=O)C(Cc1ccccc1)NC(=O)c1ccccc1)C(=O)N1CCC[C@H]1C(=O)O (stereo partly drawn) [sodium salt of N-alpha[3-(N-alpha-benzoyl-D,L-phenylalanylthio)-2-D-methylpropanoyl]-L-proline]
response vs control in vivo at 10 µmol/kg (5 min, 5 min): 82% | response vs control in vivo at 10 µmol/kg (10 min, 10 min): 33% | response vs control in vivo at 10 µmol/kg (0.25 h, 15 min): 24% | response vs control in vivo at 10 µmol/kg (20 min, 20 min): 27% | response vs control in vivo at 10 µmol/kg (0.5 h, 30 min): 27% | response vs control in vivo at 10 µmol/kg (40 min, 40 min): 22% | response vs control in vivo at 10 µmol/kg (50 min, 50 min): 24% | response vs control in vivo at 10 µmol/kg (1 h, 60 min): 27% | response vs control in vivo at 10 µmol/kg (1.5 h, 90 min): 36% | response vs control in vivo at 10 µmol/kg (2 h, 120 min): 44% | response vs control in vivo at 10 µmol/kg (2.5 h, 150 min): 62% | response vs control in vivo at 10 µmol/kg (3 h, 180 min): 60% | response vs control in vivo at 10 µmol/kg (3.5 h, 210 min): 71% | response vs control in vivo at 10 µmol/kg (4 h, 240 min): 73%

C[C@H](CSC(=O)[C@@H](N)Cc1ccccc1)C(=O)N1CCC[C@H]1C(=O)O [N-alpha-(3-L-phenylalanylthio-2-D-methylpropanoyl)-L-proline]
Blood Pressure Response to 400 ng/kg of Angiotensin I (oral 20 μmol/kg, 6 min, Ex. 237): 77 % of Control | Blood Pressure Response to 400 ng/kg of Angiotensin I (oral 20 μmol/kg, 10 min, Ex. 237): 69 % of Control | Blood Pressure Response to 400 ng/kg of Angiotensin I (oral 20 μmol/kg, 19 min, Ex. 237): 46 % of Control | Blood Pressure Response to 400 ng/kg of Angiotensin I (oral 20 μmol/kg, 25 min, Ex. 237): 38 % of Control | Blood Pressure Response to 400 ng/kg of Angiotensin I (oral 20 μmol/kg, 29 min, Ex. 237): 38 % of Control | Blood Pressure Response to 400 ng/kg of Angiotensin I (oral 20 μmol/kg, 38 min, Ex. 237): 33 % of Control | Blood Pressure Response to 400 ng/kg of Angiotensin I (oral 20 μmol/kg, 50 min, Ex. 237): 33 % of Control | Blood Pressure Response to 400 ng/kg of Angiotensin I (oral 20 μmol/kg, 57 min, Ex. 237): 31 % of Control | Blood Pressure Response to 400 ng/kg of Angiotensin I (oral 20 μmol/kg, 65 min, Ex. 237): 31 % of Control | Blood Pressure Response to 400 ng/kg of Angiotensin I (oral 20 μmol/kg, 74 min, Ex. 237): 26 % of Control | Blood Pressure Response to 400 ng/kg of Angiotensin I (oral 20 μmol/kg, 88 min, Ex. 237): 36 % of Control

From patent US4745124A, “Orally effective anti-hypertensive agents” (priority 1983, dated 1988)
